Measured values published in US8247211B2, “Glycopeptide antibiotics” (American Cyanamid Company, priority 2001, dated 2012).
≈ marks a conversion by molar mass, not a printed value.

Tests used:
Experiment in all cases: In vitro antibacterial evaluation: minimum inhibitory concentration (MIC), broth dilution method
Format in all cases: cell-based
Enterococcus sp. = tested on: Enterococcus sp.
Outline: (§1)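 Using Muller-Hinton II […] and an inoculum of 5×10^5 CFU/mL, antibiotic dilutions from 64 down to 0.06 μg/mL were tested following NCCLS M7-A2. The MIC is the lowest concentration inhibiting growth, including in methicillin-, penicillin- or vancomycin-resistant clinical isolates.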

Escherichia coli [1] = tested on: Escherichia coli
Outline: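 Values are minimum inhibitory concentrations, meaning the smallest antibiotic concentration that stops growth of the organism. They come from broth dilution in Muller-Hinton II […] per NCCLS guidance (M7-A2), using 5×10^5 CFU/mL and concentrations from 64 to 0.06 μg/mL.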

Staphylococcus sp. = conditions: 18 hours at 35° C.
Outline: as §1

Streptococcus sp. = conditions: 18 hours at 35° C.
Outline: as §1

Escherichia coli [2] = tested on: Escherichia coli; remark: listed apart in the source

Compound: CC(C)CC(=O)OC1C(O)C(CO)OC(OC2C(CO)OC(Oc3ccc(CC4NC(=O)C(C(C)c5cccc(F)c5)NC(=O)CNC(=O)C(CO)NC(=O)C(C(O)C5CNC(=N)N5C5OC(CO)C(O)C(O)C5O)NC(=O)C(C(O)C5CNC(=N)N5)NC4=O)cc3)C(O)C2O)C1O (centres unmarked) [Example 264b]
- MIC Enterococcus avium (GC 4558) (Enterococcus sp.): 64 µg/mL (≈ 45.8 µM)
- MIC Enterococcus faecalis (ATCC 29212) (Enterococcus sp.): 64 µg/mL (≈ 45.8 µM)
- MIC Enterococcus faecalis (GC 2242) (Enterococcus sp.; Enterococcus faecalis (GC 2242), 18 hours at 35° C.): 32 µg/mL (≈ 22.9 µM)
- MIC Enterococcus faecalis (GC 4552) (Enterococcus sp.; Enterococcus faecalis (GC 4552), 18 hours at 35° C.): 64 µg/mL (≈ 45.8 µM)
- MIC Enterococcus faecalis (GC 4553) (Enterococcus sp.): 64 µg/mL (≈ 45.8 µM)
- MIC Enterococcus faecalis (GC 4554) (Enterococcus sp.): 64 µg/mL (≈ 45.8 µM)
- MIC Enterococcus faecium (GC 2243) (Enterococcus sp.): 64 µg/mL (≈ 45.8 µM)
- MIC Enterococcus faecium (GC 4556) (Enterococcus sp.): 64 µg/mL (≈ 45.8 µM)
- MIC Enterococcus faecium (GC 4557) (Enterococcus sp.): 8 µg/mL (≈ 5.72 µM)
- MIC Escherichia coli (GC 4559) (Escherichia coli [1]): >64 µg/mL
- MIC Escherichia coli (GC 4560) (Escherichia coli [1]): 4 µg/mL (≈ 2.86 µM)
- MIC Coagulase Negative Staphylococcus (GC 4547) (Staphylococcus sp.): 4 µg/mL (≈ 2.86 µM)
- MIC Coagulase Negative Staphylococcus (GC 4547) (Staphylococcus sp.; broth dilution): 4 µg/mL (≈ 2.86 µM)
- MIC Coagulase Negative Staphylococcus (GC 4548) (Staphylococcus sp.): 4 µg/mL (≈ 2.86 µM)
- MIC Coagulase Negative Staphylococcus (GC 4548) (Staphylococcus sp.; broth dilution): 4 µg/mL (≈ 2.86 µM)
- MIC Coagulase Negative Staphylococcus (GC 4549) (Staphylococcus sp.): 4 µg/mL (≈ 2.86 µM)
- MIC Coagulase Negative Staphylococcus (GC 4549) (Staphylococcus sp.; broth dilution): 4 µg/mL (≈ 2.86 µM)
- MIC Coagulase Negative Staphylococcus (GC 4551) (Staphylococcus sp.): 8 µg/mL (≈ 5.72 µM)
- MIC Coagulase Negative Staphylococcus (GC 4551) (Staphylococcus sp.; broth dilution): 8 µg/mL (≈ 5.72 µM)
- MIC Staphylococcus aureus (ATCC 29213) (Staphylococcus sp.): 8 µg/mL (≈ 5.72 µM)
- MIC Staphylococcus aureus (ATCC 29213) (Staphylococcus sp.; broth dilution): 8 µg/mL (≈ 5.72 µM)
- MIC Staphylococcus aureus (GC 1131) (Staphylococcus sp.): 8 µg/mL (≈ 5.72 µM)
- MIC Staphylococcus aureus (GC 1131) (Staphylococcus sp.; broth dilution): 8 µg/mL (≈ 5.72 µM)
- MIC Staphylococcus aureus (GC 4541) (Staphylococcus sp.): 8 µg/mL (≈ 5.72 µM)
- MIC Staphylococcus aureus (GC 4541) (Staphylococcus sp.; broth dilution): 8 µg/mL (≈ 5.72 µM)
- MIC Staphylococcus aureus (GC 4542) (Staphylococcus sp.): 8 µg/mL (≈ 5.72 µM)
- MIC Staphylococcus aureus (GC 4542) (Staphylococcus sp.; broth dilution): 8 µg/mL (≈ 5.72 µM)
- MIC Staphylococcus aureus (GC 4544) (Staphylococcus sp.): 8 µg/mL (≈ 5.72 µM)
- MIC Staphylococcus aureus (GC 4544) (Staphylococcus sp.; broth dilution): 8 µg/mL (≈ 5.72 µM)
- MIC Staphylococcus aureus (GC 4545) (Staphylococcus sp.): 4 µg/mL (≈ 2.86 µM)
- MIC Staphylococcus aureus (GC 4545) (Staphylococcus sp.; broth dilution): 4 µg/mL (≈ 2.86 µM)
- MIC Staphylococcus aureus-SMITH (GC 4543) (Staphylococcus sp.): 8 µg/mL (≈ 5.72 µM)
- MIC Staphylococcus aureus-SMITH (GC 4543) (Staphylococcus sp.; broth dilution): 8 µg/mL (≈ 5.72 µM)
- MIC Staphylococcus haemolyticus (GC 4546) (Staphylococcus sp.): 4 µg/mL (≈ 2.86 µM)
- MIC Staphylococcus haemolyticus (GC 4546) (Staphylococcus sp.; broth dilution): 4 µg/mL (≈ 2.86 µM)
- MIC Streptococcus agalactiae (GC 4564) (Streptococcus sp.; Streptococcus agalactiae (GC 4564)): 4 µg/mL (≈ 2.86 µM)
- MIC Streptococcus pyogenes (ID-3187) (Streptococcus sp.; Streptococcus pyogenes (ID-3187)): 4 µg/mL (≈ 2.86 µM)
- MIC Escherichia coli (ATCC 25922) (Escherichia coli [2]): 64 µg/mL (≈ 45.8 µM)

Compound: CC(C)CC(=O)OC1C(OC2C(CO)OC(Oc3ccc(CC4NC(=O)C(C(C)c5cccs5)NC(=O)CNC(=O)C(CO)NC(=O)C(C(O)C5CNC(=N)N5C5OC(CO)C(O)C(O)C5O)NC(=O)C(C(O)C5CNC(=N)N5)NC4=O)cc3)C(O)C2O)OC(CO)C(O)C1O (centres unmarked) [Example 265a, Cyclo[3-(2-thienyl)-2-aminobutanoyl-O-[4-O-[2-O-(3-methylbutanoyl)hexopyranosyl]hexopyranosyl]tyrosyl-3-(2-iminoimidazolidin-4-yl)seryl-3-(3-hexopyranosyl-2-iminoimidazolidin-4-yl)serylserylglycyl]]
- MIC Enterococcus avium (GC 4558) (Enterococcus sp.): 64 µg/mL (≈ 46.2 µM)
- MIC Enterococcus faecalis (ATCC 29212) (Enterococcus sp.): 64 µg/mL (≈ 46.2 µM)
- MIC Enterococcus faecalis (GC 4553) (Enterococcus sp.): >64 µg/mL
- MIC Enterococcus faecalis (GC 4554) (Enterococcus sp.): >64 µg/mL
- MIC Enterococcus faecium (GC 2243) (Enterococcus sp.): >64 µg/mL
- MIC Enterococcus faecium (GC 4556) (Enterococcus sp.): 64 µg/mL (≈ 46.2 µM)
- MIC Enterococcus faecium (GC 4557) (Enterococcus sp.): 8 µg/mL (≈ 5.77 µM)
- MIC Escherichia coli (GC 4559) (Escherichia coli [1]): >64 µg/mL
- MIC Escherichia coli (GC 4560) (Escherichia coli [1]): 4 µg/mL (≈ 2.89 µM)
- MIC Coagulase Negative Staphylococcus (GC 4547) (Staphylococcus sp.): 8 µg/mL (≈ 5.77 µM)
- MIC Coagulase Negative Staphylococcus (GC 4547) (Staphylococcus sp.; broth dilution): 8 µg/mL (≈ 5.77 µM)
- MIC Coagulase Negative Staphylococcus (GC 4548) (Staphylococcus sp.): 8 µg/mL (≈ 5.77 µM)
- MIC Coagulase Negative Staphylococcus (GC 4548) (Staphylococcus sp.; broth dilution): 8 µg/mL (≈ 5.77 µM)
- MIC Coagulase Negative Staphylococcus (GC 4549) (Staphylococcus sp.): 4 µg/mL (≈ 2.89 µM)
- MIC Coagulase Negative Staphylococcus (GC 4549) (Staphylococcus sp.; broth dilution): 4 µg/mL (≈ 2.89 µM)
- MIC Coagulase Negative Staphylococcus (GC 4551) (Staphylococcus sp.): 8 µg/mL (≈ 5.77 µM)
- MIC Coagulase Negative Staphylococcus (GC 4551) (Staphylococcus sp.; broth dilution): 8 µg/mL (≈ 5.77 µM)
- MIC Staphylococcus aureus (ATCC 29213) (Staphylococcus sp.): 16 µg/mL (≈ 11.5 µM)
- MIC Staphylococcus aureus (ATCC 29213) (Staphylococcus sp.; broth dilution): 16 µg/mL (≈ 11.5 µM)
- MIC Staphylococcus aureus (GC 1131) (Staphylococcus sp.): 32 µg/mL (≈ 23.1 µM)
- MIC Staphylococcus aureus (GC 1131) (Staphylococcus sp.; broth dilution): 32 µg/mL (≈ 23.1 µM)
- MIC Staphylococcus aureus (GC 4541) (Staphylococcus sp.): 16 µg/mL (≈ 11.5 µM)
- MIC Staphylococcus aureus (GC 4541) (Staphylococcus sp.; broth dilution): 16 µg/mL (≈ 11.5 µM)
- MIC Staphylococcus aureus (GC 4542) (Staphylococcus sp.): 16 µg/mL (≈ 11.5 µM)
- MIC Staphylococcus aureus (GC 4542) (Staphylococcus sp.; broth dilution): 16 µg/mL (≈ 11.5 µM)
- MIC Staphylococcus aureus (GC 4544) (Staphylococcus sp.): 8 µg/mL (≈ 5.77 µM)
- MIC Staphylococcus aureus (GC 4544) (Staphylococcus sp.; broth dilution): 8 µg/mL (≈ 5.77 µM)
- MIC Staphylococcus aureus (GC 4545) (Staphylococcus sp.): 16 µg/mL (≈ 11.5 µM)
- MIC Staphylococcus aureus (GC 4545) (Staphylococcus sp.; broth dilution): 16 µg/mL (≈ 11.5 µM)
- MIC Staphylococcus aureus-SMITH (GC 4543) (Staphylococcus sp.): 8 µg/mL (≈ 5.77 µM)
- MIC Staphylococcus aureus-SMITH (GC 4543) (Staphylococcus sp.; broth dilution): 8 µg/mL (≈ 5.77 µM)
- MIC Staphylococcus haemolyticus (GC 4546) (Staphylococcus sp.): 8 µg/mL (≈ 5.77 µM)
- MIC Staphylococcus haemolyticus (GC 4546) (Staphylococcus sp.; broth dilution): 8 µg/mL (≈ 5.77 µM)
- MIC Streptococcus pyogenes (GC 4563) (Streptococcus sp.; broth dilution, strain GC 4563): 4 µg/mL (≈ 2.89 µM)
- MIC Streptococcus pyogenes (ID-3187) (Streptococcus sp.; broth dilution, strain ID-3187): 64 µg/mL (≈ 46.2 µM)
- MIC Escherichia coli (ATCC 25922) (Escherichia coli [2]): >64 µg/mL
